In ChEMBL document CHEMBL3045129, “Synthesis and anti-inflammatory activity of some pyrazole derivatives” (Med Chem Res, 2012) one finds inhibition in vivo and UI data, which are given here for 15 compounds.

Each structure is given as a SMILES string.

Series [1] concerns Rattus norvegicus. The experiment in a line: Anti-inflammatory activity inRattus norvegicus albino (rat) assessed as inhibition of carrageenan-induced paw edema at 100 mg/kg, po administered 1 hr prior challenge measured after 1 hr post challenge. It is filed as functional. A general note: In the carrageenan paw model, swelling and tenderness develop within hours.
In series [2] the test system is Rattus norvegicus. Kind of series: Anti-inflammatory activity inRattus norvegicus albino (rat) assessed as inhibition of carrageenan-induced paw edema at 100 mg/kg, po administered 3 hr prior challenge measured after 1 hr post challenge. The format is functional.
For series [3], the system named is Rattus norvegicus. Kind of series: Anti-inflammatory activity inRattus norvegicus albino (rat) assessed as inhibition of carrageenan-induced paw edema at 100 mg/kg, po administered 2 hr prior challenge measured after 1 hr post challenge. It is filed as functional.
Series [4] deals with Rattus norvegicus. Kind of series: Toxicity inRattus norvegicus albino (rat) assessed as ulcerogenicity at 100 mg/kg, po measured after 1 hr. The format is organism-based. Further details: dose 100 mg/kg, route oral. Particulars: in vivo.

In the case of `Cc1cc(-c2ccc(Cl)cc2)n(Cc2nnc(Nc3ccc([N+](=O)[O-])cc3)s2)n1`, the results for the inhibition in vivo at 100 mg/kg in the series on Rattus norvegicus [1], with Rattus norvegicus [2] and in the series on Rattus norvegicus [3] were 32.8%, 61.1% and 45%, respectively.

`COc1ccc(NC(=S)NNC(=O)Cn2nc(C)cc2C)cc1`: the inhibition in vivo (as a rule, how much of the control response was suppressed) at 100 mg/kg in the series on Rattus norvegicus [1] turned out to be 30.3%; with Rattus norvegicus [2], 46.4%; in the series with Rattus norvegicus [3], 41.4%.

For `Cc1cc(C)n(Cc2n[nH]c(=S)n2-c2ccc([N+](=O)[O-])cc2)n1`, the inhibition in vivo at 100 mg/kg in the series on Rattus norvegicus [1] was determined as 16.6%; with Rattus norvegicus [2], 36.4%; with Rattus norvegicus [3] it was 27.1%.

Consider `Cc1ccc(-c2cc(C(F)(F)F)nn2-c2ccc(S(N)(=O)=O)cc2)cc1` [CELECOXIB], for which the inhibition in vivo at 100 mg/kg with Rattus norvegicus [1] came out at 31.4%; with Rattus norvegicus [2], 63.8%; with Rattus norvegicus [3], 45.8%.

As to `Cc1cc(C)n(CC(=O)NNC(=S)Nc2ccc([N+](=O)[O-])cc2)n1`, the UI in the series with Rattus norvegicus [4] worked out at 18.6. Also, the results for the inhibition in vivo at 100 mg/kg in the series on Rattus norvegicus [1], in the series with Rattus norvegicus [2] and in the series on Rattus norvegicus [3] were 36.1%, 62.7% and 44.4%, respectively.

Regarding `Cc1cc(-c2ccc(Cl)cc2)n(-c2ccc(S(N)(=O)=O)cc2)n1`, in the series with Rattus norvegicus [4], the UI is recorded as 5.2. In addition, the inhibition in vivo at 100 mg/kg in the series on Rattus norvegicus [1] is 37.2%; with Rattus norvegicus [2] it was 62.5%; with Rattus norvegicus [3] it was 49.8%.

As for `CCCNc1nnc(Cn2nc(C)cc2-c2ccccc2)s1`, the inhibition in vivo at 100 mg/kg worked out at 26.9% in the series with Rattus norvegicus [1], 54.1% in the series with Rattus norvegicus [2] and 42.2% with Rattus norvegicus [3].

As to `Cc1cccc(NC(=S)NNC(=O)Cn2nc(C)cc2C)c1`, the results for the inhibition in vivo at 100 mg/kg with Rattus norvegicus [1], with Rattus norvegicus [2] and in the series with Rattus norvegicus [3] were 12.3%, 40.8% and 22.9%, respectively.

In the case of `Cc1cc(-c2ccc(Cl)cc2)n(Cc2n[nH]c(=S)o2)n1`, the inhibition in vivo at 100 mg/kg is 15.4% with Rattus norvegicus [1], 39.2% with Rattus norvegicus [2] and 31.2% in the series on Rattus norvegicus [3].

Consider `Cc1cc(C)n(Cc2n[nH]c(=S)o2)n1`, for which the inhibition in vivo at 100 mg/kg with Rattus norvegicus [1] worked out at 14.4%; in the series on Rattus norvegicus [2], 34.9%; in the series with Rattus norvegicus [3], 21.5%.

For the compound `Cc1cccc(-n2c(Cn3nc(C)cc3C)n[nH]c2=S)c1`, the inhibition in vivo at 100 mg/kg in the series with Rattus norvegicus [1] turned out to be 13.2%; in the series with Rattus norvegicus [2] it was 33.4%; in the series on Rattus norvegicus [3] it was 22.7%.

On to `Cc1cc(C)n(Cc2nnc(Nc3ccc([N+](=O)[O-])cc3)s2)n1`, for which the UI in the series on Rattus norvegicus [4] is listed as 15.6. Besides, the inhibition in vivo at 100 mg/kg stood at 37.5% in the series on Rattus norvegicus [1], 64.9% in the series on Rattus norvegicus [2] and 50% in the series with Rattus norvegicus [3].

Take `Cc1cc(-c2ccccc2)n(Cc2n[nH]c(=S)o2)n1`: the figures for the inhibition in vivo at 100 mg/kg in the series on Rattus norvegicus [1], with Rattus norvegicus [2] and in the series on Rattus norvegicus [3] were 26.3%, 48.7% and 34.2%, respectively.

As to `Cc1cc(-c2ccc(Cl)cc2)n(-c2ccc(S(=O)(=O)Nc3nccs3)cc2)n1`, the inhibition in vivo at 100 mg/kg in the series on Rattus norvegicus [1] came to 34.1%; in the series on Rattus norvegicus [2], 62%; with Rattus norvegicus [3], 44.3%.

On to `COc1ccc2c(c1)c(CC(=O)O)c(C)n2C(=O)c1ccc(Cl)cc1` [INDOMETHACIN], for which the UI in the series with Rattus norvegicus [4] is listed as 20.4. Further, the figures for the inhibition in vivo at 100 mg/kg in the series with Rattus norvegicus [1], with Rattus norvegicus [2] and in the series with Rattus norvegicus [3] were 31.5%, 60.8% and 40.1%, respectively.
